According to patent publication US20250248403A1, “COMPOSITION FOR REDUCING AMOUNT OF REACTIVE OXYGEN” (KANEKA CORPORATION, priority 2022, published 2025):

Test system: soybeans (Fukuyutaka)
Test: Electron transfer rate (ETR) by PAM fluorometry after foliar spraying and paraquat application
Type: in vivo, soybean
Details: 24 h after paraquat
Text: In FIG. 1 to FIG. 18 related to the examples, the relative value indicated above each bar chart in each drawing means a relative value when T1 in each drawing is 100. When an X % increase (relative to T2) is indicated above each bar chart in each drawing, it means that the value increases by X % relative to the value of T2 in each drawing. When a Y % decrease (relative to T2) is indicated above each bar chart in each drawing, it means that the value decreases by Y % relative to the value of T2 in each drawing.
A 9 cm poly pot was filled with culture soil and seeded with three soybeans (Fukuyutaka).
After seeding, the soybeans were cultivated in an incubator set in a light period (6:00-18:00, temperature 26° C., illuminance 120 μmol/m^2·s) and a dark period (18:00-6:00, temperature 18° C.). After germination, they were thinned to one plant.
(§1) After the first true leaf development, in each of the following treatments, foliar spraying of the following liquid (composition for reducing reactive oxygen) was conducted on each plant (application of the composition for reducing reactive oxygen). Twenty-four hours after the foliar spraying, foliar spraying of a paraquat aqueous solution with SILWET L-77 added to make a 1,000-fold dilution was conducted on each plant, except for a Control (T1) (paraquat application).
Electron transfer rate (ETR) was measured by pulse amplitude modulated fluorometry (PAM fluorometry) twenty-four hours after the paraquat application. In addition, twenty-four hours after the paraquat application, a SPAD value was measured using a chlorophyll meter.
as §1, with “for the” for “for a”
ETR was measured by the PAM fluorometry twenty-four hours after the paraquat application. In addition, twenty-four hours after the paraquat application, a SPAD value was measured using a chlorophyll meter.
After seeding, the soybeans were cultivated in an incubator set in a light period (6:00-18:00, temperature 26° C., illuminance 120 μmol/m^2·s)

| Substance | ETR compared with T2 (Experimental Example 4, T3: SL diluted 1000 times, PAR 1496) | ETR compared with T2 (Experimental Example 3, T3: SF diluted 10000 times, PAR 1496) | ETR compared with T2 (Experimental Example 6, T3: SF diluted 10000 times, PAR 1496) | ETR compared with T2 (Experimental Example 9, T3: SF diluted 2000 times, PAR 1455) |
| --- | --- | --- | --- | --- |
| sophorolipid [SL] | slightly increased |  |  |  |
| surfactin Na [SF] |  | slightly increased | slightly increased | significantly increased |
